In PubChem BioAssay (NCI):
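96-well plates; 48 h exposure; 5 concentrations. Endpoints by linear interpolation between flanking doses. Not reached: highest tested concentration assigned. Definition used: TGI = concentration required for complete inhibition of growth.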

Tests used:
Test in all cases: NCI-60 cell line screen, 48 h
NCI-H460 lung = system: NCI-H460 lung
OVCAR-3 ovarian = system: OVCAR-3 ovarian
SK-MEL-2 melanoma = system: SK-MEL-2 melanoma
UACC-257 melanoma = system: UACC-257 melanoma
ACHN renal = system: ACHN renal
SR leukemia = system: SR leukemia
MOLT-4 leukemia = system: MOLT-4 leukemia
SK-MEL-5 melanoma = system: SK-MEL-5 melanoma
SNB-75 CNS = system: SNB-75 CNS
U251 CNS = system: U251 CNS
UACC-62 melanoma = system: UACC-62 melanoma
DLD-1 colon = system: DLD-1 colon
A549 NSCLC = system: A549 NSCLC
HT29 colon = system: HT29 colon
RPMI-8226 leukemia = system: RPMI-8226 leukemia
NCI-H522 lung = system: NCI-H522 lung
OVCAR-5 ovarian = system: OVCAR-5 ovarian
OVCAR-4 ovarian = system: OVCAR-4 ovarian
CAKI-1 renal = system: CAKI-1 renal
CCRF-CEM leukemia = system: CCRF-CEM leukemia
786-0 renal = system: 786-0 renal
COLO 205 colon = system: COLO 205 colon
OVCAR-8 ovarian = system: OVCAR-8 ovarian
EKVX NSCLC = system: EKVX NSCLC
M19-MEL melanoma = system: M19-MEL melanoma
HCT-15 colon = system: HCT-15 colon
K-562 leukemia = system: K-562 leukemia
SF-539 CNS = system: SF-539 CNS
NCI-H226 lung = system: NCI-H226 lung
SK-OV-3 ovarian = system: SK-OV-3 ovarian
MALME-3M melanoma = system: MALME-3M melanoma
SF-295 CNS = system: SF-295 CNS
TK-10 renal = system: TK-10 renal
HOP-92 NSCLC = system: HOP-92 NSCLC
LOX IMVI melanoma = system: LOX IMVI melanoma
NCI-H23 lung = system: NCI-H23 lung
SN12C renal = system: SN12C renal
IGROV1 ovarian = system: IGROV1 ovarian
KM20L2 colon = system: KM20L2 colon
UO-31 renal = system: UO-31 renal
DMS 273 small cell lung = system: DMS 273 small cell lung
SK-MEL-28 melanoma = system: SK-MEL-28 melanoma
SW-620 colon = system: SW-620 colon
LXFL 529 NSCLC = system: LXFL 529 NSCLC
SNB-78 CNS = system: SNB-78 CNS
XF 498 CNS = system: XF 498 CNS
M14 melanoma = system: M14 melanoma
HOP-62 NSCLC = system: HOP-62 NSCLC
HCT-116 colon = system: HCT-116 colon
SNB-19 CNS = system: SNB-19 CNS
HL-60(TB) leukemia = system: HL-60(TB) leukemia
KM12 colon = system: KM12 colon
SF-268 CNS = system: SF-268 CNS
DMS 114 small cell lung = system: DMS 114 small cell lung
RXF 393 renal = system: RXF 393 renal
HCC-2998 colon = system: HCC-2998 colon

Measured: TGI

O=C(O)COc1ccccc1C(=O)Nc1ccccc1
not listed: DMS 114 small cell lung | RXF 393 renal | HCC-2998 colon
> 100 µM: all other assays above

Cc1ccc(/C=N\NC2c3cc(Cl)ccc3Nc3nc(=O)[nH]c(C)c32)cc1 (centres undefined)
not listed: SK-MEL-5 melanoma | OVCAR-5 ovarian | OVCAR-4 ovarian | CAKI-1 renal | HCT-15 colon
> 100 µM: all other assays above
